This is an account of results in article PMC4272272 (PLoS ONE, 2014).

Where two headings read alike, the source gives them in different places.

Details of data set [1]: method as in PMID 23445717. The conditions noted are these: cited from earlier work.
The subject of another data set is plasma glucose. The conditions noted are these: CGM, mean ± SD, n = 10.
Details of data set [2]: method as in earlier work. The conditions noted are these: ref 2 (Ishida et al., 2011) of supplement, cited from earlier work.
The conditions of data set [3]: cited from earlier work; for Liraglutide AUC lower than in healthy subjects, on average: single dose, ref 1 (Jacobsen et al., 2009) of supplement.
A short description of data set [4]: Safety assessment (adverse events, physical examination, vital signs) after liraglutide. It is filed as in vivo, human. The conditions noted are these: off-hemodialysis (day 2) or on-hemodialysis (day 3); 0.6 or 0.9 mg s.c.; 10 patients. On the procedure:
The severity and causal relationship to liraglutide of all treatment-related adverse events in these patients were assessed by the investigators. A physical examination, including vital signs (blood pressure and heart rate) and clinical laboratory biochemical tests, was also performed on each patient.

For data set [5], the system named is albumin and α-acidic glycoprotein. The conditions noted are these: plasma protein binding; cited from earlier work. The text has this: Insulin treatment remains the main therapy for the control of hyperglycemia in diabetic patients with ESRD requiring hemodialysis, but it sometimes induces severe hypoglycemia.
The conditions of data set [6]: human, in vivo; cited from earlier work.

Experimental for plasma glucose: CGM was performed both off-hemodialysis (day 2) and on-hemodialysis (day 3).
The mean, maximum, and minimum glucose concentrations; SD; and MAGE were analyzed using a paired t-test and 95% confidence interval (CI) for the mean ratio (on-hemodialysis/off-hemodialysis). Because these values could be logarithmically transformed, the transformed data were used for analyses. […] In these cases, the original non-transformed values were analyzed by paired t-test. […] Values of p<0.05 were considered significant.

Consider `CCCCCCCCCCCCCCCC(=O)N[C@@H](CCC(=O)NCCCC[C@H](NC(=O)[C@H](C)NC(=O)[C@H](C)NC(=O)[C@H](CCC(N)=O)NC(=O)CNC(=O)[C@H](CCC(=O)O)NC(=O)[C@H](CC(C)C)NC(=O)[C@H](Cc1ccc(O)cc1)NC(=O)[C@H](CO)NC(=O)[C@H](CO)NC(=O)[C@@H](NC(=O)[C@H](CC(=O)O)NC(=O)[C@H](CO)NC(=O)[C@@H](NC(=O)[C@H](Cc1ccccc1)NC(=O)[C@@H](NC(=O)CNC(=O)[C@H](CCC(=O)O)NC(=O)[C@H](C)NC(=O)[C@@H](N)Cc1cnc[nH]1)[C@@H](C)O)[C@@H](C)O)C(C)C)C(=O)N[C@@H](CCC(=O)O)C(=O)N[C@@H](Cc1ccccc1)C(=O)N[C@H](C(=O)N[C@@H](C)C(=O)N[C@@H](Cc1c[nH]c2ccccc12)C(=O)N[C@@H](CC(C)C)C(=O)N[C@H](C(=O)N[C@@H](CCCNC(=N)N)C(=O)NCC(=O)N[C@@H](CCCNC(=N)N)C(=O)NCC(=O)O)C(C)C)[C@@H](C)CC)C(=O)O` [liraglutide], for which the Adverse events entry was “no adverse events” in data set [1] (0.3 mg/day, nine diabetic Japanese patients with ESRD); 2 events of vomiting and 1 event of nausea in data set [3] (single injection 0.75 mg, non-diabetic Caucasian patients with varying degrees of renal impairment). Also, in data set [1] (0.3 mg, diabetic patients with ESRD undergoing hemodialysis), the “Mean period of hypoglycemia after liraglutide administration” value is listed as “approximately 50 min/day”. Further, the “AUC during 24 hr in hyperglycemia (>180 mg/dL)” value in the data set with plasma glucose (off-hemodialysis (day 2)) stood at 7746.0 ± 17246.4 mg·min/dL; in the data set on plasma glucose (on-hemodialysis (day 3)), 11427.5 ± 19184.4 mg·min/dL. The “MAGE (mean amplitude of glycemic excursions)” value was determined as 55.6 ± 27.4 mg/dL in the data set on plasma glucose (off-hemodialysis (day 2)) and 90.0 ± 65.7 mg/dL in the data set on plasma glucose (on-hemodialysis (day 3)). The Minimum glucose level in the data set on plasma glucose (off-hemodialysis (day 2)) amounted to 92.7 ± 27.1 mg/dL; with plasma glucose (on-hemodialysis (day 3)), 88.4 ± 21.4 mg/dL. Besides, the “Time during 24 hr in hyperglycemia (>180 mg/dL)” value with plasma glucose (off-hemodialysis (day 2)) came out at 214.5 ± 388.4 min; in the data set with plasma glucose (on-hemodialysis (day 3)), 210.0 ± 282.9 min. Moreover, the “Patients withdrawn from liraglutide treatment due to nausea” value in data set [2] (19 patients switched from insulin) is given as “Two patients”. In addition, in data set [2] (30% of the subjects complained before the switch), the “Hypoglycemia symptoms after the switch to liraglutide” value is on record as “not observed”. In data set [2] (from 5.3±0.5 before the switch from insulin, p= 0.07, 19 patients), the “Glycosylated haemoglobin 1c (HbA1c) after one month of liraglutide” value is on record as 5.1±0.5. In addition, the “Glycoalbumin (GA) after one-month treatment of liraglutide” value in data set [2] (from 21.0±2.2 before the switch from insulin, p= 0.02, 19 patients) is reported as 19.4±2.4%. Moreover, the “Liraglutide AUC lower than in healthy subjects, on average” value was 26% in data set [3] (end-stage renal disease), 33% in data set [3] (mild renal impairment), 14% in data set [3] (moderate renal impairment) and 27% in data set [3] (severe renal impairment). In addition, the “Adverse events, including signs of hypoglycemia” value in data set [4] is “No adverse events”. Moreover, the “Liraglutide binding to albumin and α-acidic glycoprotein” value in data set [5] is reported as “approximately 99%”.
As to exenatide, in data set [6], the “AUC0–∞ in non-diabetic patients with ESRD relative to healthy controls” value was 3.37 times and the “Cmax in non-diabetic patients with ESRD relative to healthy controls” value is 1.38 times.
